Laboratory results from patent publication US7074922B2, “Method for producing the tautomeric form of (1) of 2,4,6-trianilino-p-(carbo-1′-ethylhexyl-1′oxyl)-1, 3, 5-triazine” (BASF Aktiengesellschaft, priority 2002, dated 2006).

Assay: Storage stability of solutions in cosmetic oils (clouding and precipitation)
Format: physicochemical
Details: after 2 days
Excerpt: Storage Stability of Solutions of the Tautomeric Form I in Cosmetic Oils
Both solutions were still clear after 2 days.

Compound: CCCCC(CC)COC(=O)c1ccc(Nc2nc(Nc3ccc(C(=O)OCC(CC)CCCC)cc3)nc(Nc3ccc(C(=O)OCC(CC)CCCC)cc3)n2)cc1 (centres unmarked) [I, 2,4,6-trianilino-p-(carbo-2′-ethylhexyl-1′-oxy)-1,3,5-triazine]
- appearance of solution on storage (solution in C8–C10-coconut fatty acid triglyceride): still clear
- appearance of solution on storage (solution in cetylstearyl 2-ethylhexanoate): still clear
